The values that follow come from paper PMC4965473 (Frontiers in Physiology, 2016).

Entries after “also recorded” stand apart in the source; their conditions may differ. Counter-ions that a name gives are not always drawn.

The target of assay [1] is T1, M2TMD21−49 (Influenza A virus, UniProt P0DOF5, L46C). In kind it is binding. The following applies: pH 5.5.
The test system of assay [2] is wt M2TMD21−49. On the set-up: species or system influenza A. The following applies: pH 5.5.
Assay [3] deals with G34A mutant of M2TMD21−49. Also noted: species or system influenza A. The following applies: pH 5.5.
For assay [4], the target named is T1, M2TMD21−49.
Assay [5] relates to wt M2TMD21−49. On the set-up: species or system influenza A. The conditions noted are these: pH 5.5. The source holds these as a separate data set.

As to `NC12CC3CC(CC(C3)C1)C2` [amantadine, amantadine hydrochloride], the “reduction of k4d in the presence of amantadine” value in assay [1] is on record as 10 -fold. For the same molecule, the “maximum increase in DEER modulation depth upon binding of amantadine” value in assay [2] is recorded as 23–30%. In addition, the “effect of amantadine on C-terminal conformation / inter-spin distances of G34A mutant” value in assay [3] is listed as “marginal if any effect on M2TMD C-terminal conformation; also recorded: Inter-spin distances do not change upon the addition of amantadine”. Also, in assay [4], the “oligomeric species seen in EM micrographs” value is “monomers, dimers, and tetramers”. Further, in assay [5], the “narrowing of Gaussian widths (σ) in the presence of amantadine” value is “ca. 2 Å”; the “r1, Gaussian mean (proximal distance)” value stood at 20.8 Å; the “r2, Gaussian mean (lateral distance)” value is given as 29 Å; the “shortening of inter-spin distances upon binding of amantadine” value is 5–8 Å.
